In the NIST ThermoML archive (doi:10.1016/j.jct.2018.09.009):

What was measured:
[1] = xn = mol fraction of the nth substance listed; details: Liquid, isochoric method
[2] = molar heat capacity at constant volume; xn = mol fraction of the nth substance listed; details: Liquid, Vacuum adiabatic calorimetry

C=C(F)C(F)(F)F [2,3,3,3-tetrafluoro-1-propene] + CCC
Details | mass density [kg/m3] | molar heat capacity at constant volume [J/K/mol]
[1], 254.28 K, 1867 kPa, x1 = 0.607 | 969.9 | –
[1], 255.92 K, 1645 kPa, x1 = 0.825 | 1109.8 | –
[1], 256.67 K, 3513 kPa, x1 = 0.607 | 969.4 | –
[1], 258.25 K, 3241 kPa, x1 = 0.825 | 1109.2 | –
[1], 259.05 K, 5156 kPa, x1 = 0.607 | 968.9 | –
[1], 260.61 K, 4872 kPa, x1 = 0.825 | 1108.7 | –
[1], 261.41 K, 6787 kPa, x1 = 0.607 | 968.5 | –
[1], 262.96 K, 6492 kPa, x1 = 0.825 | 1108.1 | –
[1], 263.78 K, 8419 kPa, x1 = 0.607 | 968 | –
[1], 265.27 K, 8092 kPa, x1 = 0.825 | 1107.6 | –
[1], 266.11 K, 10027 kPa, x1 = 0.607 | 967.5 | –
[1], 267.59 K, 9690 kPa, x1 = 0.825 | 1107 | –
[1], 268.42 K, 11618 kPa, x1 = 0.607 | 967 | –
[1], 269.9 K, 11286 kPa, x1 = 0.825 | 1106.5 | –
[1], 270.72 K, 13214 kPa, x1 = 0.607 | 966.5 | –
[1], 272.22 K, 12888 kPa, x1 = 0.825 | 1105.9 | –
[1], 290.26 K, 1730 kPa, x1 = 0.521 | 821.2 | –
[1], 292.5 K, 2803 kPa, x1 = 0.521 | 820.9 | –
[1], 294.78 K, 3896 kPa, x1 = 0.521 | 820.6 | –
[1], 297.13 K, 5024 kPa, x1 = 0.521 | 820.3 | –
[1], 299.47 K, 6148 kPa, x1 = 0.521 | 820 | –
[1], 301.86 K, 7296 kPa, x1 = 0.521 | 819.7 | –
[1], 304.23 K, 8438 kPa, x1 = 0.521 | 819.4 | –
[1], 306.62 K, 9582 kPa, x1 = 0.521 | 819.1 | –
[1], 309.04 K, 10744 kPa, x1 = 0.521 | 818.8 | –
[1], 311.5 K, 11920 kPa, x1 = 0.521 | 818.5 | –
[1], 313.73 K, 1699 kPa, x1 = 0.285 | 626 | –
[1], 313.86 K, 13057 kPa, x1 = 0.521 | 818.2 | –
[1], 316.16 K, 2581 kPa, x1 = 0.285 | 625.9 | –
[1], 318.63 K, 3477 kPa, x1 = 0.285 | 625.7 | –
[1], 321.06 K, 4361 kPa, x1 = 0.285 | 625.5 | –
[1], 323.51 K, 5252 kPa, x1 = 0.285 | 625.3 | –
[1], 326.04 K, 6172 kPa, x1 = 0.285 | 625.1 | –
[1], 328.54 K, 7079 kPa, x1 = 0.285 | 624.9 | –
[1], 331.04 K, 7988 kPa, x1 = 0.285 | 624.7 | –
[1], 333.51 K, 8883 kPa, x1 = 0.285 | 624.5 | –
[1], 336.01 K, 9790 kPa, x1 = 0.285 | 624.3 | –
[1], 338.48 K, 10686 kPa, x1 = 0.285 | 624.1 | –
[1], 340.94 K, 11578 kPa, x1 = 0.285 | 624 | –
[1], 343.4 K, 12468 kPa, x1 = 0.285 | 623.8 | –
[1], 345.88 K, 13366 kPa, x1 = 0.285 | 623.6 | –
[1], 348.3 K, 14239 kPa, x1 = 0.285 | 623.4 | –
[2], 255.48 K, 2690 kPa, x1 = 0.607 | – | 81.79
[2], 257.09 K, 2443 kPa, x1 = 0.825 | – | 89.48
[2], 257.86 K, 4335 kPa, x1 = 0.607 | – | 82.48
[2], 259.43 K, 4057 kPa, x1 = 0.825 | – | 89.48
[2], 260.23 K, 5972 kPa, x1 = 0.607 | – | 82.92
[2], 261.79 K, 5682 kPa, x1 = 0.825 | – | 90.4
[2], 262.6 K, 7603 kPa, x1 = 0.607 | – | 82.74
[2], 264.12 K, 7292 kPa, x1 = 0.825 | – | 90.81
[2], 264.95 K, 9223 kPa, x1 = 0.607 | – | 83.87
[2], 266.43 K, 8891 kPa, x1 = 0.825 | – | 90.2
[2], 267.27 K, 10823 kPa, x1 = 0.607 | – | 83.61
[2], 268.75 K, 10488 kPa, x1 = 0.825 | – | 91.52
[2], 269.57 K, 12416 kPa, x1 = 0.607 | – | 84.82
[2], 271.06 K, 12087 kPa, x1 = 0.825 | – | 91.21
[2], 275.52 K, 2097 kPa, x1 = 0.825 | – | 93.05
[2], 276.02 K, 1993 kPa, x1 = 0.607 | – | 87.59
[2], 277.84 K, 3440 kPa, x1 = 0.825 | – | 93.86
[2], 278.37 K, 3320 kPa, x1 = 0.607 | – | 87.07
[2], 280.2 K, 4817 kPa, x1 = 0.825 | – | 94.67
[2], 280.75 K, 4661 kPa, x1 = 0.607 | – | 88.46
[2], 282.57 K, 6197 kPa, x1 = 0.825 | – | 95.49
[2], 283.13 K, 6012 kPa, x1 = 0.607 | – | 88.11
[2], 284.92 K, 7561 kPa, x1 = 0.825 | – | 95.18
[2], 285.51 K, 7357 kPa, x1 = 0.607 | – | 88.54
[2], 287.24 K, 8908 kPa, x1 = 0.825 | – | 95.69
[2], 287.89 K, 8694 kPa, x1 = 0.607 | – | 88.89
[2], 289.57 K, 10249 kPa, x1 = 0.825 | – | 96.1
[2], 290.27 K, 10038 kPa, x1 = 0.607 | – | 89.15
[2], 291.9 K, 11593 kPa, x1 = 0.825 | – | 97.32
[2], 292.66 K, 11390 kPa, x1 = 0.607 | – | 89.15
[2], 295.03 K, 12722 kPa, x1 = 0.607 | – | 89.41
[2], 295.93 K, 1917 kPa, x1 = 0.825 | – | 96.81
[2], 298.32 K, 3042 kPa, x1 = 0.825 | – | 97.73
[2], 300.77 K, 4193 kPa, x1 = 0.825 | – | 97.63
[2], 302.78 K, 1793 kPa, x1 = 0.607 | – | 91.49
[2], 303.23 K, 5349 kPa, x1 = 0.825 | – | 97.53
[2], 305.28 K, 2835 kPa, x1 = 0.607 | – | 91.83
[2], 305.69 K, 6504 kPa, x1 = 0.825 | – | 99.26
[2], 307.82 K, 3898 kPa, x1 = 0.607 | – | 91.4
[2], 308.14 K, 7659 kPa, x1 = 0.825 | – | 98.75
[2], 310.37 K, 4961 kPa, x1 = 0.607 | – | 92.35
[2], 310.6 K, 8808 kPa, x1 = 0.825 | – | 100.68
[2], 312.91 K, 6022 kPa, x1 = 0.607 | – | 93.48
[2], 313.06 K, 9957 kPa, x1 = 0.825 | – | 100.58
[2], 314.95 K, 2140 kPa, x1 = 0.285 | – | 84.58
[2], 315.46 K, 7086 kPa, x1 = 0.607 | – | 93.82
[2], 315.53 K, 11107 kPa, x1 = 0.825 | – | 102.31
[2], 317.06 K, 2127 kPa, x1 = 0.521 | – | 93.58
[2], 317.4 K, 3029 kPa, x1 = 0.285 | – | 85.48
[2], 318.01 K, 8150 kPa, x1 = 0.607 | – | 94.52
[2], 319.49 K, 2066 kPa, x1 = 0.825 | – | 102.21
[2], 319.6 K, 2994 kPa, x1 = 0.521 | – | 93.99
[2], 319.85 K, 3919 kPa, x1 = 0.285 | – | 86.63
[2], 320.54 K, 9207 kPa, x1 = 0.607 | – | 95.55
[2], 322.06 K, 2960 kPa, x1 = 0.825 | – | 103.02
[2], 322.15 K, 3867 kPa, x1 = 0.521 | – | 94.07
[2], 322.29 K, 4807 kPa, x1 = 0.285 | – | 87.15
[2], 323.08 K, 10263 kPa, x1 = 0.607 | – | 96.25
[2], 324.62 K, 3854 kPa, x1 = 0.825 | – | 104.35
[2], 324.7 K, 4739 kPa, x1 = 0.521 | – | 94.55
[2], 324.78 K, 5712 kPa, x1 = 0.285 | – | 87.47
[2], 325.63 K, 11326 kPa, x1 = 0.607 | – | 96.68
[2], 327.17 K, 4744 kPa, x1 = 0.825 | – | 105.16
[2], 327.23 K, 5608 kPa, x1 = 0.521 | – | 95.28
[2], 327.29 K, 6626 kPa, x1 = 0.285 | – | 87.72
[2], 329.73 K, 5637 kPa, x1 = 0.825 | – | 105.87
[2], 329.76 K, 6474 kPa, x1 = 0.521 | – | 95.44
[2], 329.79 K, 7534 kPa, x1 = 0.285 | – | 87.53
[2], 332.28 K, 8436 kPa, x1 = 0.285 | – | 87.98
[2], 332.3 K, 6534 kPa, x1 = 0.825 | – | 105.97
[2], 332.3 K, 7345 kPa, x1 = 0.521 | – | 94.79
[2], 334.76 K, 9337 kPa, x1 = 0.285 | – | 88.36
[2], 334.85 K, 7427 kPa, x1 = 0.825 | – | 106.28
[2], 334.85 K, 8221 kPa, x1 = 0.521 | – | 95.92
[2], 337.25 K, 10238 kPa, x1 = 0.285 | – | 88.81
[2], 337.4 K, 8319 kPa, x1 = 0.825 | – | 106.89
[2], 337.4 K, 9098 kPa, x1 = 0.521 | – | 96.32
[2], 339.71 K, 11132 kPa, x1 = 0.285 | – | 88.87
[2], 339.93 K, 9963 kPa, x1 = 0.521 | – | 96.24
[2], 339.94 K, 9209 kPa, x1 = 0.825 | – | 106.69
[2], 342.17 K, 12023 kPa, x1 = 0.285 | – | 89.07
[2], 342.44 K, 10822 kPa, x1 = 0.521 | – | 96.32
[2], 342.47 K, 10092 kPa, x1 = 0.825 | – | 106.89
[2], 344.64 K, 12917 kPa, x1 = 0.285 | – | 89.19
[2], 344.94 K, 11680 kPa, x1 = 0.521 | – | 96.56
[2], 345.02 K, 10985 kPa, x1 = 0.825 | – | 107.2
[2], 347.09 K, 13803 kPa, x1 = 0.285 | – | 89.32
[2], 347.44 K, 12532 kPa, x1 = 0.521 | – | 96.89
[2], 347.55 K, 11870 kPa, x1 = 0.825 | – | 106.38
